Measurements taken from US20160008339A1, “PSORALEN DERIVATIVES FOR PREVENTING OR TREATING HEART FAILURE OR CARDIAC HYPERTROPHY” (MAX-DELBRUCK-CENTRUM FUR MOLEKULARE MEDIZIN, priority 2012, published 2016).

Legend:
[1] = test system: AKAP-Lbc mediated RhoA/SRF activation; assay: Dual luciferase SRE reporter assay, AKAP-Lbc transfected HEK293; format: cell-based; conditions: Homo sapiens
Experimental: (§1) The experiments were performed following the protocol of the dual luciferase reporter assay (Promega). HEK293 cells were transfected with plasmid DNAs of two luciferases and plasmids of different exchange factors. A serum response element was located ahead of the coding luciferase sequences. Activated RhoA activates the serum response element, which enables the expression of the firefly luciferase. After 4 hours the cells were treated with compound 31413. After additional twenty four hours the cells were lysed in passive lysis buffer (Promega). The luciferase activity in the cell lysate was determined by measurement of the luminescence signal according to above mentioned protocol with 96 well plate (OptiPlate 96) and LarII- and. Stop-&Glow-substrate solutions in a micro plate reader
(§2) To rule out that other RhoGEF are influenced by the inventive compounds in their activity, HEK293 cells were transfected with different RhoGEF constructs. Additionally, as normalization control, two luciferase plasmids were added, which code for a serum response element (SRE) coupled firefly luciferase and for a Renilla luciferase, respectively. […] The luciferase activities were determined in the lysate. […] Further, the luciferase activity of the indicated RhoGEFs was analysed in absence or presence of 50 μmol/L compound 31413 (FIG. 4 B).

[2] = test system: different RhoGEF constructs; assay: Dual luciferase SRE reporter assay, other RhoGEF constructs in HEK293; format: cell-based, human; conditions: 50 μmol/L, vs DMSO treated control
Experimental: as §1, §2

3T3 mouse fibroblasts = assay: LPA-induced stress fibre formation, TRITC-phalloidin fluorescence; format: cell-based; conditions: 3T3 cells, LPA 300 nM 10 min; compound 30 μmol/L 30 min pre-treatment
From the text: For the initial analysis, 3T3 cells were used to evaluate the cellular effects of the compounds of the present invention. In these cells changes in the cytoskeleton caused by GTPase activation are well observable, because the cells have a G protein coupled receptor for LPA. A stimulation of 3T3 cells with LPA leads to an activation of RhoA and thereby to the formation of fibrillar actin filaments (F-actin, stress fibres). The participation of AKAP-Lbc as an exchange factor for RhoA within the signal transduction via a G protein of the G−12/13 family was shown.
3T3 mouse fibroblasts were seeded on 30 mm cover slips (in 6 well plates) in a cell density of 2×10^5 cells/well. […]
Following that, the cells were washed with phosphate buffer (Dulbecco's Phosphate-Buffered Saline++) and fixed in 2.5% paraformaldehyde in sodium cacodylate buffer (100 mmol/L sodium cacodylate, 100 mmol/L sucrose, pH 7.4) for 15 min. […] For the microscopic investigations, images were taken with two different fluorescence channels. […]
Without LPA stimulation no stress fibres could be identified after addition of DMSO instead of the compounds of the invention (FIG. 2A, a). […] The quantification of the stress fibre formation were performed with the software package ImageJ by the determination of the overall fluorescence of the TRITC-phalloidin. […]

[3] = test system: GαqRC and p63RhoGEF (Gαq coupled activation of RhoA); assay: Rhotekin-based precipitation of RhoA-GTP, HEK293 transfected with GαqRC / p63RhoGEF; format: cell-based, human; conditions: 50 μmol/L
Experimental: HEK293 cells were seeded in 6-well plates. One day later the cells were transfected with the following plasmid DNAs:
After additional 24 hours the cells were treated with compound 31413 (50 μmol/L) or DMSO for 30 min at 37° C. Subsequently, the cells were lysed in precipitation buffer (50 mM Tris pH 7.4, 150 mmol/L NaCl, 4 mmol/L MgCl2; 10% v/v glycerol, 1% octylphenoxypolyethoxyethanol [IPEGAL]) and centrifugated 20000 g for two minutes to remove cell debris. 40 μl of the lysate were taken for the determination of the total RhoA content. The residual lysate was incubated with 40 μl GSH-sepharose coupled GST-rhotekin for one hour at 4° C. Then, the GSH-sepharose was washed twice with precipitation buffer, enriched with SDS-PAGE loading buffer and heated 5 min at 90° C. […] The ratio between total RhoA and Rho-GTP was densitometrically determined.
The activation state of RhoA was determined with a Rho binding region of the rhotekin protein, a Rho effector, immobilised on a sepharose bead in the presence and absence of compound 31413. […]
GTP-bound RhoA was detected by rhotekin precipitation (FIG. 3). The precipitation of RhoA from transfected HEK293 cells was performed with a rhotekin sepharose, and analysed with SDS-PAGE and immunoblotting with a RhoA specific antibody. […] The precipitated RhoA-GTP was separated with SDS-PAGE, blotted and detected with a specific anti-RhoA antibody.

## COc1ccc(-c2coc3cc4oc(=O)c(C)c(C)c4cc23)cc1 [Compound 31413, 3-(4-methoxyphenyl)-5,6-dimethyl-furo[3,2-g]chromen-7-one]
[1]
  IC50: ~25 µM
[2]
  luciferase activity of the indicated RhoGEFs: None of the investigated GEF shows a significant reduction
3T3 mouse fibroblasts
  formation of stress fibres: suppression of the stress fibre formation
[3]
  precipitated amount of RhoA-GTP: no difference
